{
  "source": "patent US9394281B2",
  "about": "“Substituted heteroaryl compounds and methods of use” (Calitor Sciences, LLC, priority 2014, dated 2016)",
  "key": {"[1]": {"test": "Pharmacokinetics after intravenous and oral administration in rats", "type": "in vivo, rat", "details": "iv dosing, 1 mg/kg; for AUC(0-t) / half-life / Vd: rat, plasma; for Vd: read-out: Vss", "experimental": "The compounds disclosed herein are assessed in pharmacokinetic studies in mice, rats, dogs or monkeys. The compounds are administered as a water solution, 2% HPMC+1% TWEEN®80 in water solution, 5% DMSO+5% solutol in saline, 4% MC suspension or capsule. For the intravenous administration, the animals are generally given at 1 or 2 mg/kg dose. For the oral (p.o.) dosing, mice and rats are generally given 5 or 10 mg/kg dose, and dogs and monkeys are generally given 10 mg/kg dose. The blood samples (0.3 mL) are drawn at 0.25, 0.5, 1.0, 2.0, 3.0, 4.0, 6.0, 8.0, 12 and 24 h time points or 0.083, 0.25, 0.5, 1.0, 2.0, 4.0, 6.0, 8.0 and 24 h time points and centrifuged at 3,000 or 4000 rpm for 2 to 10 min. The plasma solutions are collected, and stored at −20° C. or −70° C. until analyzed by LC/MS/MS as described above."}, "JAK1 (h)": {"target": "JAK1 (h) (Homo sapiens (Human), UniProt P23458)", "sequence (P23458 whole entry)": "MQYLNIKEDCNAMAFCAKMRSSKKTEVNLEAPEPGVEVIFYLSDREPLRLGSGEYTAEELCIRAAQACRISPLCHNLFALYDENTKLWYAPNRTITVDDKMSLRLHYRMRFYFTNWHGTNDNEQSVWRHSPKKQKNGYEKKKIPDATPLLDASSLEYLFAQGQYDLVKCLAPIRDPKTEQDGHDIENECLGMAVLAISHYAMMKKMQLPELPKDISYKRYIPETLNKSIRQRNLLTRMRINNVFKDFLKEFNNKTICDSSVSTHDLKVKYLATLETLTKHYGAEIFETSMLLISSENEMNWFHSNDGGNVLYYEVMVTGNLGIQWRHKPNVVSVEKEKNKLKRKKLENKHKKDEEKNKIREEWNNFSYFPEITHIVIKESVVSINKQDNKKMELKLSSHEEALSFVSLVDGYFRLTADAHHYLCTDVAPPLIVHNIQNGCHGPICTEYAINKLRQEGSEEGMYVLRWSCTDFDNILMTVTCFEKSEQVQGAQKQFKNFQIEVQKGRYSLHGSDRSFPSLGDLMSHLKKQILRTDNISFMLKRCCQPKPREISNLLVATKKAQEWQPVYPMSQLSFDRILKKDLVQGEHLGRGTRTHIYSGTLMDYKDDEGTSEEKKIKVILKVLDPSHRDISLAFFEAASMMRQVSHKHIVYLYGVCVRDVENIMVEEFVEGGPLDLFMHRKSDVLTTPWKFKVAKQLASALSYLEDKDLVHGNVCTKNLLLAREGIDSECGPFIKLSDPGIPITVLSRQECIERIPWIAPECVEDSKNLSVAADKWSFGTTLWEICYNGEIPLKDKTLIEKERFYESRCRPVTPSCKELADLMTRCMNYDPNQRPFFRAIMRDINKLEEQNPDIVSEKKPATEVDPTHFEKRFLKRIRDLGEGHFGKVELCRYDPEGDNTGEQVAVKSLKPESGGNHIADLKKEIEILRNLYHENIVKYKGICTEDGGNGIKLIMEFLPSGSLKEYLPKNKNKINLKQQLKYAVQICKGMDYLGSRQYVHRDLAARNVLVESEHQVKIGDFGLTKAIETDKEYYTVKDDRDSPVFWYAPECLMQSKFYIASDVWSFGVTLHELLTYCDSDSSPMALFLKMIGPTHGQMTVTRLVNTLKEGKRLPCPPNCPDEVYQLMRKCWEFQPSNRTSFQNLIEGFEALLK", "test": "JAK1 (h) kinase assay", "type": "biochemical", "experimental": "(§1) Kinase assays can be performed by measurement of incorporation of γ-^33P ATP into immobilized myelin basic protein (MBP). High binding white 384 well plates (Greiner) are coated with MBP (Sigma #M-1891) by incubation of 60 μL/well of 20 μg/mL MBP in Tris-buffered saline (TBS; 50 mM Tris pH 8.0, 138 mM NaCl, 2.7 mM KCl) for 24 h at 4° C. Plates are washed 3× with 100 μL TBS. Kinase reactions are carried out in a total volume of 34 μL in kinase buffer (5 mM Hepes pH 7.6, 15 mM NaCl, 0.01% bovine gamma globulin (Sigma #I-5506), 10 mM MgCl2, 1 mM DTT, 0.02% TritonX-100). Compound dilutions are performed in DMSO and added to assay wells to a final DMSO concentration of 1%. Each data point is measured in duplicate, and at least two duplicate assays are performed for each individual compound determination. Enzyme is added to final concentrations of 10 nM or 20 nM, for example. A mixture of unlabeled ATP and γ-^33P ATP is added to start the reaction (2×10^6 cpm of γ-^33P ATP per well (3000 Ci/mmole) and 10 μM unlabeled ATP, typically. The reactions are carried out for 1 h at room temperature with shaking Plates are washed 7× with TBS, followed by the addition of 50 μL/well scintillation fluid (Wallac). Plates are read using a Wallac Trilux counter. This is only one format of such assays; various other formats are possible, as known to one skilled in the art.\nThe above assay procedure can be used to determine the IC50 for inhibition and/or the inhibition constant, Ki. The IC50 is defined as the concentration of compound required to reduce the enzyme activity by 50% under the condition of the assay. The IC50 value is estimated by preparing a 10 point curve using a ½ log dilution series (for example, a typical curve may be prepared using the following compound concentrations: 3 μM, 1 μM, 0.3 μM, 0.1 μM, 0.03 μM, 0.01 μM, 0.003 μM, 0.001 μM, 0.0003 μM, and 0 μM).\n(§2) The kinase assays described herein were performed at Millipore UK Ltd, Dundee Technology Park, Dundee DD2 1SW, UK."}, "Aurora-B (h)": {"target": "Aurora-B (h) (Homo sapiens (Human), UniProt Q96GD4)", "sequence (Q96GD4 whole entry)": "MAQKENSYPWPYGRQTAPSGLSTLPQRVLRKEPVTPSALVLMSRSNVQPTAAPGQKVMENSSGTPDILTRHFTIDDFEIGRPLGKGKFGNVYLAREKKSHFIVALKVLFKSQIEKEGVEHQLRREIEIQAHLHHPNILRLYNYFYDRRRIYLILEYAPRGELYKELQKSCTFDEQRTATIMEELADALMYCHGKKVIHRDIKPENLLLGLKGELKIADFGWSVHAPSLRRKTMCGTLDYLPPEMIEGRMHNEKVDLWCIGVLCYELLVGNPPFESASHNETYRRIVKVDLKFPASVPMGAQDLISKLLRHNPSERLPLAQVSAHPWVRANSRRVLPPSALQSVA", "test": "Aurora-B (h) kinase assay", "type": "biochemical", "experimental": "as §1, with “art. […]” for “art.”"}, "FLT3 (h)": {"target": "FLT3 (h) (Homo sapiens (Human), UniProt P36888)", "sequence (P36888 27-993)": "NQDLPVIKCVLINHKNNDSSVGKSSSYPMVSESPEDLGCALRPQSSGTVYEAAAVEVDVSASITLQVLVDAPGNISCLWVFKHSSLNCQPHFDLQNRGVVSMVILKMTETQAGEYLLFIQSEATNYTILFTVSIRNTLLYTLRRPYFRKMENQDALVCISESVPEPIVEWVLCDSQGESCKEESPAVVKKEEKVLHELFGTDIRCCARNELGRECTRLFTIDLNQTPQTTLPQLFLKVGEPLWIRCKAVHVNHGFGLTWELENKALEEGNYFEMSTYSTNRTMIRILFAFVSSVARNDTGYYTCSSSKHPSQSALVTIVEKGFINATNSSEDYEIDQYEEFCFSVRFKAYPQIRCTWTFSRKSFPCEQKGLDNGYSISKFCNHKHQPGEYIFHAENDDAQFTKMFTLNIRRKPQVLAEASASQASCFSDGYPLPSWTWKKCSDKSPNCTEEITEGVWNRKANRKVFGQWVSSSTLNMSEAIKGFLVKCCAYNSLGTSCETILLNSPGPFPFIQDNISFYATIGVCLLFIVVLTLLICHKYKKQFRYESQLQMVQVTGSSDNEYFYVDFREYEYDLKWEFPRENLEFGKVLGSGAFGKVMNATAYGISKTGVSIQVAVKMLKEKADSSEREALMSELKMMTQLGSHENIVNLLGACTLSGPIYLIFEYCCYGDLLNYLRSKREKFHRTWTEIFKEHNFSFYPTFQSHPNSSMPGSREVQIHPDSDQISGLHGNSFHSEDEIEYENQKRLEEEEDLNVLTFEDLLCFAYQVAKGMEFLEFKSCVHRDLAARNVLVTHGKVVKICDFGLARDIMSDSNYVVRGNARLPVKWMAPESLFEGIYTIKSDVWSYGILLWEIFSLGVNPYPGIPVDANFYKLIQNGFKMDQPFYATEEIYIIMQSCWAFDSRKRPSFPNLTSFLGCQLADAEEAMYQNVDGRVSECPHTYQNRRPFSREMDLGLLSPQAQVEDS", "test": "FLT3 (h) kinase assay", "type": "biochemical", "experimental": "as §1, with “art. […]” for “art.”"}, "[2]": {"test": "Compound stability in rat liver microsomes", "type": "in vitro ADME", "details": "pH 7.4; for half-life at 5 μM: rat liver microsomes 0.5 mg protein/mL, compound 5 μM, NADPH 1.0 mM, 37° C., read-out: Rat T1/2; for CLint scaled at 5 μM: rat liver microsomes, in vivo CLint extrapolated", "experimental": "(§3) Human or rat liver microsomes incubations were conducted in duplicate in polypropylene tubes. The typical incubation mixtures consisted of human or rat liver microsomes (0.5 mg protein/mL), compounds of interest (5 μM) and NADPH (1.0 mM) in a total volume of 200 μL potassium phosphate buffer (PBS, 100 mM, pH 7.4). Compounds were dissolved in DMSO and diluted with PBS such that the final concentration of DMSO was 0.05%. The enzymatic reactions were commenced with the addition of […] after a 3-min preincubation and incubated in a water bath open to the air at 37° C. Reactions were terminated at various time points (0, 5, 10, 15, 30, 60 min) by adding equal volume of ice-cold acetonitrile. The samples were stored at […] until LC/MS/MS assays.\n(§4) The concentrations of compounds in the incubation mixtures of human or rat liver microsomes were determined by a LC/MS/MS method. The ranges of the linearity in the concentration range were determined for each tested compounds.\n(§5) A parallel incubation was performed using denatured microsomes as the negative control, and reactions were terminated at various time points (0, 15, 60 min) after incubation at 37° C.\n(§6) Dextromethorphan (70 μM) was selected as the positive control, and reactions were terminated at various time points (0, 5, 10, 15, 30, 60 min) after incubation at 37° C. Both positive and negative control samples were included in each assay to ensure the integrity of the microsomal incubation system.\n(§7) The concentrations of compounds in human or rat liver microsome incubations were plotted as a percentage of the relevant zero time point control for each reaction. The in vivo CLint were extrapolated (ref.: Naritomi, Y.; Terashita, S.; Kimura, S.; Suzuki, A.; Kagayama, A.; and Sugiyama, Y.; Prediction of human hepatic clearance from in vivo animal experiments and in vitro metabolic studies with liver microsomes from animals and humans. Drug Metab. Dispos., 2001, 29: 1316-1324)."}, "[3]": {"test": "Compound stability in human liver microsomes", "type": "in vitro ADME", "details": "for half-life at 5 μM / CLint scaled at 5 μM: pH 7.4; for half-life at 5 μM: read-out: Human T1/2; for CLint scaled at 5 μM: human liver microsomes, in vivo CLint extrapolated", "experimental": "as §3, §4, §5, §6, §7"}, "Aurora-A (h)": {"target": "Aurora-A (h) (Homo sapiens (Human), UniProt O14965)", "sequence (O14965 whole entry)": "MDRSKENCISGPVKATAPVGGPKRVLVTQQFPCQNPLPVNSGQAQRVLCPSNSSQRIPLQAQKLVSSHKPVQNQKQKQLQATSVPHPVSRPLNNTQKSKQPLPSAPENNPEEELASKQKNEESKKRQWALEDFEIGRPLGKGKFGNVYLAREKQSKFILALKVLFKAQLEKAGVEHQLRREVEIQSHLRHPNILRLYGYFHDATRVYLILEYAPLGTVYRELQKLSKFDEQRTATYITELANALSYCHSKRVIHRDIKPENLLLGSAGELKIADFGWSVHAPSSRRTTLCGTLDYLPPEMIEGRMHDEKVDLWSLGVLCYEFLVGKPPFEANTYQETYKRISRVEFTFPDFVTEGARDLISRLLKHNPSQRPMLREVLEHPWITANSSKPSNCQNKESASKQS", "test": "Aurora-A (h) kinase assay", "type": "biochemical", "experimental": "Kinase assays can be performed by measurement of incorporation of γ-^33P ATP into immobilized myelin basic protein (MBP). […] Plates are washed 3× with 100 μL TBS. Kinase reactions are carried out in a total volume of 34 μL in kinase buffer (5 mM Hepes pH 7.6, 15 mM NaCl, 0.01% bovine gamma globulin (Sigma #I-5506), 10 mM MgCl2, 1 mM DTT, 0.02% TritonX-100). Compound dilutions are performed in DMSO and added to assay wells to a final DMSO concentration of 1%. Each data point is measured in duplicate, and at least two duplicate assays are performed for each individual compound determination. Enzyme is added to final concentrations of 10 nM or 20 nM, for example.\nThe above assay procedure can be used to determine the IC50 for inhibition and/or the inhibition constant, Ki. The IC50 is defined as the concentration of compound required to reduce the enzyme activity by 50% under the condition of the assay.\nas §2"}, "JAK2 (h)": {"target": "JAK2 (h) (Homo sapiens (Human), UniProt O60674)", "sequence (O60674 whole entry)": "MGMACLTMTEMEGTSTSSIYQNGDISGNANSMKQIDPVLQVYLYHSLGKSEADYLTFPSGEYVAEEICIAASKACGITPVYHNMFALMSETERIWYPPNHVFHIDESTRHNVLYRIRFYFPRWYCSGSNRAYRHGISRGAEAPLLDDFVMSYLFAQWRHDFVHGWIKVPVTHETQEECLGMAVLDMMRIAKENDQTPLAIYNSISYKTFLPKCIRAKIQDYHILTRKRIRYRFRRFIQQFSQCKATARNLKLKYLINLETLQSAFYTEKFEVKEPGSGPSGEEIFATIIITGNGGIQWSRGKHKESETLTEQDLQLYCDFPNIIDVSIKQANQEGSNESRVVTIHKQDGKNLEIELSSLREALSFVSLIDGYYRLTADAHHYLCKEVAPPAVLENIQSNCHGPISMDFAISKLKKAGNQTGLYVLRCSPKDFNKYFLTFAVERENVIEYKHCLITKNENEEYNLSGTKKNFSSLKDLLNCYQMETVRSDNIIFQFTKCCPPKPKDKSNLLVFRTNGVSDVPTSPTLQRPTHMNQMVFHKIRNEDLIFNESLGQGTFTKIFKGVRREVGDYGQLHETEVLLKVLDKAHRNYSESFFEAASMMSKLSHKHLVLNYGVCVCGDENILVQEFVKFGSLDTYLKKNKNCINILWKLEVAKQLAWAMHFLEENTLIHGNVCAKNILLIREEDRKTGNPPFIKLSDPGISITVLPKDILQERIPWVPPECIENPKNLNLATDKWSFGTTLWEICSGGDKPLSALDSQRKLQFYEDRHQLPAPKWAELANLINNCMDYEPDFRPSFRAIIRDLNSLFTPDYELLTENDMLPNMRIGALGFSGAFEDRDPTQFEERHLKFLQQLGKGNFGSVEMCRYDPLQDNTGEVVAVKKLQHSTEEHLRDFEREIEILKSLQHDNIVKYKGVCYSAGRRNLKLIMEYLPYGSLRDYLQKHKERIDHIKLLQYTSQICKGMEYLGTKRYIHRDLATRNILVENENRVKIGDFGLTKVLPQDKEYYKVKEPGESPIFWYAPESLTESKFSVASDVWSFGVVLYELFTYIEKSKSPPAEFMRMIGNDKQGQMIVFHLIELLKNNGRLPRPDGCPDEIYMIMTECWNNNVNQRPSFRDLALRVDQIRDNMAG", "test": "JAK2 (h) kinase assay", "type": "biochemical", "experimental": "as §1, with “art. […]” for “art.”"}, "[4]": {"details": "human liver microsomes 0.5 mg protein/mL, compound 5 μM, NADPH 1.0 mM, 37° C."}},
  "data": [
    {"molecule": "Cn1cc(Nc2ncc(Cl)c(NC3COC4C(OCCO)COC34)n2)cn1", "note": "(stereo not drawn) [Ex. 5, 2-((6-((5-chloro-2-((l-methyl-1H-pyrazol-4-yl)amino)pyrimidin-4-yl)amino)hexahydrofuro[3,2-b]furan-3-yl)oxy)ethanol]", "values": [
      {"measurement": "Cl/F", "setting": "[1]", "result": 25, "unit": "mL/min/kg"},
      {"measurement": "AUC(0-t)", "setting": "[1]", "result": 621, "unit": "ng·h/mL"},
      {"measurement": "half-life", "setting": "[1]", "result": 2.93, "unit": "h"},
      {"measurement": "Vd", "setting": "[1]", "result": 3.02, "unit": "L/kg"},
      {"measurement": "IC50", "setting": "JAK1 (h)", "result": 61, "unit": "nM"},
      {"measurement": "IC50", "setting": "Aurora-B (h)", "result": 50, "unit": "nM"},
      {"measurement": "IC50", "setting": "FLT3 (h)", "result": 57, "unit": "nM"},
      {"measurement": "half-life at 5 μM", "setting": "[2]", "result": 12.1, "unit": "h"},
      {"measurement": "CLint scaled at 5 μM", "setting": "[2]", "result": 3.42, "unit": "mL/min/kg"},
      {"measurement": "Human T1/2", "setting": "[3]; [4]", "result": "∞"}
    ]},
    {"molecule": "Cn1cc(Nc2ncc(Cl)c(NC3COC4C(N)COC34)n2)cn1", "note": "(stereo not drawn) [Ex. 7, N^4-(6-aminohexahydrofuro[3,2-b]furan-3-yl)-5-chloro-N^2-(1-methyl-1H-pyrazol-4-yl)pyrimidine-2,4-diamine]", "values": [
      {"measurement": "IC50", "setting": "Aurora-A (h)", "result": 99, "unit": "nM"}
    ]},
    {"molecule": "Cc1cnc(Nc2cnn(C)c2)nc1NC1COC2C(O)COC12", "note": "(stereo not drawn) [Ex. 3, 6-((5-methyl-2-((1-methyl-1H-pyrazol-4-yl)amino)pyrimidin-4-yl)amino) hexahydrofuro[3,2-b]furan-3-ol]", "values": [
      {"measurement": "IC50", "setting": "JAK1 (h)", "result": 78, "unit": "nM"}
    ]},
    {"molecule": "COC1COC2C(Nc3nc(Nc4cnn(C)c4)ncc3Cl)COC12", "note": "(stereo not drawn) [Ex. 6, 5-chloro-N^4-(6-methoxyhexahydrofuro[3,2-b]furan-3-yl)-N^2-(1-methyl-1H-pyrazol-4-yl)pyrimidine-2,4-diamine]", "values": [
      {"measurement": "Cl/F", "setting": "[1]", "result": 20.8, "unit": "mL/min/kg"},
      {"measurement": "AUC(0-t)", "setting": "[1]", "result": 822, "unit": "ng·h/mL"},
      {"measurement": "half-life", "setting": "[1]", "result": 0.83, "unit": "h"},
      {"measurement": "Vd", "setting": "[1]", "result": 1.39, "unit": "L/kg"},
      {"measurement": "half-life at 5 μM", "setting": "[2]", "result": 1.48, "unit": "h"},
      {"measurement": "CLint scaled at 5 μM", "setting": "[2]", "result": 28, "unit": "mL/min/kg"},
      {"measurement": "half-life at 5 μM", "setting": "[3]; [4]", "result": 1.52, "unit": "h"},
      {"measurement": "CLint scaled at 5 μM", "setting": "[3]", "result": 19, "unit": "mL/min/kg"}
    ]},
    {"molecule": "CN(c1nc(Nc2cnn(C)c2)ncc1Cl)C1COC2C(O)COC21", "note": "(stereo not drawn) [Ex. 1, 6-((5-chloro-2-((l-methyl-1H-pyrazol-4-yl)amino)pyrimidin-4-yl)(methyl)amino)hexahydrofuro[3,2-b]furan-3-ol]", "values": [
      {"measurement": "Cl/F", "setting": "[1]", "result": 18.2, "unit": "mL/min/kg"},
      {"measurement": "AUC(0-t)", "setting": "[1]", "result": 929, "unit": "ng·h/mL"},
      {"measurement": "half-life", "setting": "[1]", "result": 1.2, "unit": "h"},
      {"measurement": "Vd", "setting": "[1]", "result": 1.22, "unit": "L/kg"},
      {"measurement": "IC50", "setting": "JAK1 (h)", "result": 261, "unit": "nM"},
      {"measurement": "IC50", "setting": "JAK2 (h)", "result": 689, "unit": "nM"},
      {"measurement": "half-life at 5 μM", "setting": "[2]", "result": 20.6, "unit": "h"},
      {"measurement": "CLint scaled at 5 μM", "setting": "[2]", "result": 2.01, "unit": "mL/min/kg"},
      {"measurement": "half-life at 5 μM", "setting": "[3]; [4]", "result": 32.8, "unit": "h"},
      {"measurement": "CLint scaled at 5 μM", "setting": "[3]", "result": 0.88, "unit": "mL/min/kg"}
    ]},
    {"molecule": "Cn1cc(Nc2ncc(Cl)c(NC3COC4C(NS(C)(=O)=O)COC34)n2)cn1", "note": "(stereo not drawn) [Ex. 8, N-(6-((5-chloro-2-((1-methyl-1H-pyrazol-4-yl)amino)pyrimidin-4-yl)amino)hexahydrofuro[3,2-b]furan-3-yl)methanesulfonamide]", "values": [
      {"measurement": "Cl/F", "setting": "[1]", "result": 63.7, "unit": "mL/min/kg"},
      {"measurement": "AUC(0-t)", "setting": "[1]", "result": 259, "unit": "ng·h/mL"},
      {"measurement": "half-life", "setting": "[1]", "result": 0.34, "unit": "h"},
      {"measurement": "Vd", "setting": "[1]", "result": 1.39, "unit": "L/kg"},
      {"measurement": "IC50", "setting": "Aurora-A (h)", "result": 51, "unit": "nM"},
      {"measurement": "IC50", "setting": "JAK1 (h)", "result": 31, "unit": "nM"},
      {"measurement": "IC50", "setting": "Aurora-B (h)", "result": 31, "unit": "nM"},
      {"measurement": "IC50", "setting": "FLT3 (h)", "result": 11, "unit": "nM"},
      {"measurement": "half-life at 5 μM", "setting": "[2]", "result": 1.64, "unit": "h"},
      {"measurement": "CLint scaled at 5 μM", "setting": "[2]", "result": 25.2, "unit": "mL/min/kg"},
      {"measurement": "half-life at 5 μM", "setting": "[3]; [4]", "result": 6.28, "unit": "h"},
      {"measurement": "CLint scaled at 5 μM", "setting": "[3]", "result": 4.61, "unit": "mL/min/kg"}
    ]}
  ]
}
